The values that follow come from US20050187462A1, “Dynamic contrast enhanced imaging using a mamillary distributed parameter model” (priority 2004, published 2005).

The data set is described as follows: Prostate case study: DCE CT tissue concentration-time curve fitted to 2-, 3- and 4-compartment mamillary distributed-parameter models. The following applies: value (percent CV); for t1: vascular transit time. Type of data set: in vivo, patient. An excerpt:
It is instructive to apply the present mamillary model to a tumor study case to further illustrate some physiological aspects of the model, and also for comparison with another model. Ca(t) was sampled at the iliac arteries simultaneously in the same CT scan as the prostate tissue concentration-time curve, Ctiss(t). The contrast medium used was the x-ray dye lopamidol and the region of interest for Ctiss was drawn over the prostate gland. Example imaging and patient protocols that were used are, for example, expounded upon in T. S. Koh, V. Zeman, J. Darko, T. Lee, M. F. Milosevic, M. Haider, P. Warde, and I. W. T. Yeung, “The inclusion of capillary distribution in the adiabatic tissue homogeneity model of blood flow”, Phys. Med. Biol., vol. 46, pp. 1519-1538, 2001.
The ‘goodness-of-fit’ between model and data can be given by the χ^2 statistic as detailed in equation (11).
A 2-compartment distributed-parameter model has 4 adjustable parameters (i.e F, t1, k12 and k21), and each additional compartment introduces two additional parameters given by the rate constants.
The tissue concentration-time curve Ctiss(t) was sampled at a region of interest over the prostate tumor. […] A test statistic to compare the goodness-of-fit of a more complex model (χ^2c) with that of a less complex (reduced) model (χ^2r) can be given by equation (12), namely [formula] which follows the F-distribution. The degrees of freedom dfr and dfc are those associated with the reduced and complex models, respectively. […] Correspondingly, large values of F* would justify the more complex model.
The fitted Ctiss(t) curves using 2-, 3- and 4-compartment distributed-parameter models are shown in FIG. 5 and their corresponding impulse residue functions are shown in FIG. 6. The values for the parameters adjusted in the model fittings together with their error estimates (as percent CVi) are listed in Table 1.

Setting [1] is: 2-compartment model, rate constant for tracer transfer.
Where [2] appears, read: 3-compartment model, rate constant for tracer transfer.
The mark [3] stands for this setting: 4-compartment model, rate constant for tracer transfer.

Regarding `C[C@H](O)C(=O)Nc1c(I)c(C(=O)NC(CO)CO)c(I)c(C(=O)NC(CO)CO)c1I` [lopamidol], under setting [1], the K12 is listed as 0.744 (4) min^−1 and the K21 is 2.183 (4) min^−1. In addition, the t1 (2-compartment model) is 0.717 (3) min. Also, under setting [2], the K12 is recorded as 1.581 (17) min^−1, the K13 is 0.259 (28) min^−1, the K21 was 1.854 (15) min^−1 and the K31 is given as 0.818 (25) min^−1. In addition, the t1 (3-compartment model) is 0.688 (9) min. In addition, under setting [3], the K12 is listed as 1.579 (20) min^−1, the K13 is listed as 0.264 (36) min^−1, the K14 is 0.000 (53) min^−1 and the K21 is 1.853 (17) min^−1. Under setting [3], the K31 is listed as 0.816 (32) min^−1 and the K41 is 0.000 (44) min^−1. For the same compound, under “4-compartment model”, the t1 is given as 0.688 (11) min.
